Assay results as given in patent US7049445B2, “Bicyclic compounds” (Asahi Kasei Pharma Corporation, priority 2000, dated 2006).
Where a name gives a salt, the structure may show the parent alone.

Key:
human β3 = target: T1, human β3 (Homo sapiens, UniProt P13945); experiment: Human β3-agonist activities (cAMP in transfected CHO cells); assay type: cell-based; settings: CHO cells transfected with human β3 gene; for EC50: cAMP quantitated by EIA after 30 minutes; for Emax: read-out: Intrinsic activity* (relative activities as compared with isoproterenol)
T1 construct: used as a probe to obtain the full length human β3 gene from a human genomic library; expressed in transfected cells; host or cells: CHO (Chinese hamster ovary) cells, pcDNA3 vector
Procedure: Human β3-agonist activities were determined using CHO (Chinese hamster ovary) cells transfected with pcDNA3 (mfd. by Invitrogen) to which human β3 gene had been inserted. Human β3 fragment was first obtained from human adipose tissue cDNA (mfd. by Clonetech) by PCR using the primer of β3 (Krief, et al., J. Clin. Invest., vol. 91, pp. 344-349 (1993)). The human β3 fragment thus obtained was used as a probe to obtain the full length human β3 gene from a human genomic library (mfd. by Clonetech). The above cells were cultured in a Ham F-12 medium supplemented with 10% fetal bovine serum, 400 μg/mL geneticin (Gibco BRL), 100 U/mL penicillin and 100 μg/mL streptomycin. After placing these cells (5×10^5) into a 6-well plate and culturing them for 24 hours, they were allowed to stand on a serum-free Ham F-12 medium for 2 hours. The compound was first dissolved in DMSO, diluted to a concentration of 10^−6 M with Ham F-12 supplemented with 1 mM isobutylmethylxanthine and 1 mM ascorbic acid, and then added to the cells. After the cells were cultured for 30 minutes, the medium was removed, followed by addition of 0.5 mL of 1 N NaOH. The medium was allowed to stand for 20 minutes and then 0.5 mL of 1 N acetic acid was added to the medium. The medium was stirred and centrifuged, followed by quantitating cAMP with cAMP EIA kit (mfd. by Cayman). With respect to eight compounds among the compounds described in Examples, their relative activities (%) as compared with isoproterenol were indicated in Table 3. Isoproterenol was purchased from RBI (Research Biochemicals International). The results from Table 3 indicate that the compounds of the present invention have human β3-agonist activities.

male ddy mice = experiment: Toxicity test; assay type: in vivo; settings: orally administered to 6-week old male ddy mice at 100 mg/kg
[1] = test system: transgenic mouse expressing human β3; experiment: Thermogenesis in transgenic mouse expressing human β3; assay type: in vivo; settings: orally administered to transgenic mice, 3 to 10 mg/kg
Description: Ito, et al. prepared a replacement mouse expressing human β3 in its brown fat by introducing human β3 gene into a mouse whose mouse β3 gene had been knocked out (Ito, et al., Diabetes, vol. 47, pp. 1464-1471 (1998)). A compound of the present invention can be tested for antiobestic activity and antidiabetic activity using a transgenic mouse according to the following procedures.
The thermogenesis can be measured with OXYMAX System (Columbus) according to the method reported by Largis et al. (Drug Development Research, vol. 32, pp. 69-76 (1994)). According to this device, the amount of thermogenesis can be obtained by calculating the calories based on the amount of oxygen consumed and the amount of carbon dioxide generated. After the administration of a medicinal substance, the measurements are carried out for 120 minutes (15 points). The average of the measured values obtained for the latter […] (10 points) is converted into a value per body weight to give the amount of thermogenesis. When a test by repetitive administrations is carried out, a medicinal substance may be administered at a dose once daily, twice daily or the like. The duration of administration may be 1 week, 2 weeks or more. In a test by repetitive administrations, body weight, blood glucose level and insulin level can be monitored with the passage of time as the method of Largis et al. (Drug Development Research, vol. 32, pp. 69-76 (1994). It is also possible that after the completion of the administration, the animal is anatomized to measure the weight of fat tissue or to prepare a section followed by a microscopic examination. Further, the expression level of UCP-1 can be examined according to the method reported by Nagase et al. (J. Clin. Invest., vol. 97, pp. 2898-2904 (1996)).
The present compounds were orally administered to transgenic mice in an amount of from 3 to 10 mg/kg to measure their thermogenesis.

[2] = cAMP, relative to isoproterenol

T1 sequence (P13945 whole entry): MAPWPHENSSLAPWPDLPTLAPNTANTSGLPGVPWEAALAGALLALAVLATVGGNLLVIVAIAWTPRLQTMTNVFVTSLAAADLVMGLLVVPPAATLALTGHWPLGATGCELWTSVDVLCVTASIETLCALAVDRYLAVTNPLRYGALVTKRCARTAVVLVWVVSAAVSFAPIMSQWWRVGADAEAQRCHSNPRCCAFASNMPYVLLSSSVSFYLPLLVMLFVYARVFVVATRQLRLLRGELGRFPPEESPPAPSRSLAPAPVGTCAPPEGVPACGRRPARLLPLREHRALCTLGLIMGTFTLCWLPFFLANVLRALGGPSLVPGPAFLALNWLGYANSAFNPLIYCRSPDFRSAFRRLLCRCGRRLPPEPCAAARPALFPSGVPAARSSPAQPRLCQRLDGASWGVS

Row | SMILES | EC50 (human β3) [nM] | Intrinsic activity* (relative activities as compared with isoproterenol) (human β3; [2]) [%] | Mortality (male ddy mice) | Emax (human β3; [2]) [%] | Increase of thermogenesis as compared with the control group [1] [%]
1 | CNS(=O)(=O)c1cc(C(O)CNCCOc2ccc3c(C)c(C)[nH]c3c2)ccc1O.O=C(O)C(F)(F)F (stereo not shown) [Example 9, N-methyl-[5-[2-[2-(2,3-dimethyl-1H-indol-6-yloxy)ethylamino]-1-hydroxyethyl]-2-hydroxy]benzenesulfonamide trifluoroacetate] | 16 | 62 | none of eight animals were found to be dead | – | –
2 | Cc1c(-c2ccccc2)[nH]c2cc(OCCNC[C@H](O)c3cccc(NS(C)(=O)=O)c3)ccc12.Cl [Example 13, (R)-N-[3-[2-[2-(3-methyl-2-phenyl-1H-indol-6-yloxy)ethylamino]-1-hydroxyethyl]phenyl]methanesulfonamide hydrochloride] | 14 | – | – | 96 | 15
3 | Cc1c(-c2ccccc2)[nH]c2cc(OCCNC[C@H](O)c3ccc(Cl)c(NS(C)(=O)=O)c3)ccc12 [Example 17, (R)-N-[5-[2-[2-(3-methyl-2-phenyl-1H-indol-6-yloxy)ethylamino]-1-hydroxyethyl]-2-chlorophenyl]methanesulfonamide hydrochloride] | 4.4 | – | – | 94 | –
4 | Cc1[nH]c2cc(OCCNC[C@H](O)c3ccc(Cl)c(NS(C)(=O)=O)c3)ccc2c1C.Cl [Example 10, (R)-N-[5-[2-[2-(2,3-dimethyl-1H-indol-6-yloxy)ethylamino]-1-hydroxyethyl]-2-chlorophenyl]methanesulfonamide hydrochloride] | 4.5 | – | none of eight animals were found to be dead | 78 | 15
5 | Cc1[nH]c2cc(OCCNC[C@H](O)c3cccc(NS(C)(=O)=O)c3)ccc2c1C.Cl [Example 11, (R)-N-[3-[2-[2-(2,3-dimethyl-1H-indol-6-yloxy)ethylamino]-1-hydroxyethyl]phenyl]methanesulfonamide hydrochloride] | 4.8 | – | – | 80 | 17
6 | CNS(=O)(=O)c1cc([C@@H](O)CNCCOc2ccc3c(C)c(C)[nH]c3c2)ccc1O [Example 12, N-methyl-(R)-[5-[2-[2-(2,3-dimethyl-1H-indol-6-yloxy)ethylamino]-1-hydroxyethyl]-2-hydroxy]benzenesulfonamide hydrochloride] | 5.3 | – | – | 71 | –
7 | Cc1[nH]c2cc(OCCNCC(O)c3ccc(Cl)c(NS(C)(=O)=O)c3)ccc2c1C (stereo not shown) [Example 4, N-[5-[2-[2-(2,3-dimethyl-1H-indol-6-yloxy)ethylamino]-1-hydroxyethyl]-2-chlorophenyl]methanesulfonamide trifluoroacetate] | 10 | – | – | 73 | –
8 | Cc1[nH]c2cc(OCCNCC(O)c3cccc(NS(C)(=O)=O)c3)ccc2c1C.O=C(O)C(F)(F)F (stereo not shown) [Example 3, N-[3-[2-[2-(2,3-dimethyl-1H-indol-6-yloxy)ethylamino]-1-hydroxyethyl]phenyl]methanesulfonamide trifluoroacetate] | 8.7 | – | none of eight animals were found to be dead | 100 | –
